# Where “and” joins values, the source holds several entries; their conditions need not be identical. Equal values may be shown once.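 Dose response: 5 concentrations. Exposure: 48 h. Format: 96-well plates. Endpoint: linear interpolation; highest concentration if not reached. Abbreviation: GI50, concentration required for 50% inhibition of growth. TGI: total growth inhibition.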
# What was measured:
# Assay in all cases: growth of human tumour cells (NCI), 48 h
# MOLT-4 leukemia = test system: MOLT-4 leukemia
# DMS 273 small cell lung = test system: DMS 273 small cell lung
# ACHN renal = test system: ACHN renal
# A549 NSCLC = test system: A549 NSCLC
# OVCAR-8 ovarian = test system: OVCAR-8 ovarian
# CCRF-CEM leukemia = test system: CCRF-CEM leukemia
# COLO 205 colon = test system: COLO 205 colon
# HCT-116 colon = test system: HCT-116 colon
# NCI-H460 lung = test system: NCI-H460 lung
# DLD-1 colon = test system: DLD-1 colon
# PC-3 prostate = test system: PC-3 prostate
Compound,TGI (MOLT-4 leukemia),TGI (DMS 273 small cell lung),TGI (ACHN renal),TGI (A549 NSCLC),TGI (OVCAR-8 ovarian),TGI (CCRF-CEM leukemia),TGI (COLO 205 colon),TGI (HCT-116 colon),TGI (NCI-H460 lung),TGI (DLD-1 colon),TGI (PC-3 prostate),GI50 (CCRF-CEM leukemia)
BrC/C=C/C[P+](c1ccccc1)(c1ccccc1)c1ccccc1,> 100 µM,14.2 µM,> 100 µM,> 100 µM,> 100 µM,> 100 µM,16.1 µM,> 100 µM,> 100 µM,–,–,–
N=S(c1ccccc1)c1ccccc1[N+](=O)[O-] (stereo not given),64.3 µM,34.4 µM,31 µM,32.1 µM,51.5 µM,43.4 µM,34 µM,31.6 µM,51 µM,46 µM,–,–
C=CCNC(=S)/N=C/c1c(O)c2ccccc2oc1=O,> 100 µM,> 100 µM,> 100 µM,> 100 µM,> 100 µM,> 100 µM,> 100 µM,> 100 µM,> 100 µM,> 100 µM,–,–
O=c1ccc2cc3ccc4cccc5ccc(c2o1)c3c45,> 100 µM,–,34 µM,–,> 100 µM,> 100 µM,> 100 µM,–,> 100 µM,> 100 µM,–,–
Cc1cc(=O)c2c([nH]1)NS(=O)(=O)NC2=O,> 100 µM,> 100 µM,–,> 100 µM,> 100 µM,> 100 µM,> 100 µM,> 100 µM,–,> 100 µM,–,–
O=c1c2ccccc2nc2[nH][nH]c(=S)n12,> 100 µM,–,> 100 µM,> 100 µM,> 100 µM,> 100 µM,> 100 µM,> 100 µM,> 100 µM,–,> 100 µM,–
CC1CC[C@@]2(OC1)OC1C[C@H]3[C@@H]4CC[C@H]5CC(OC6OC(CO)C(OC7OC(CO)C(O)C(O)C7OC7OC(CO)C(O)C(O)C7O)C(O)C6O)CCC5(C)[C@H]4CCC3(C)C1[C@@H]2C (stereo not given in full),3.54 µM,–,6.06 µM,7.93 µM,14.3 µM,4.1 µM,1.77 µM,7.34 µM,11.6 µM,–,1.52 µM,–
COCOc1ccc(Cn2c(=O)n(C)c(=O)c3c2ncn3C)cc1[N+](=O)[O-],> 100 µM,> 100 µM,> 100 µM,> 100 µM,> 100 µM,> 100 µM,> 100 µM,> 100 µM,> 100 µM,> 100 µM,–,–
O=C1/C(=C\c2cccc(Oc3ccccc3)c2)S(=O)(=O)C(c2ccccc2)N1Cc1ccccc1 (stereo not given),7.7 µM,–,49.4 µM,> 100 µM,53.4 µM,> 100 µM,57 µM,> 100 µM,40.9 µM,–,> 100 µM,–
O=P(c1ccccc1)(c1ccccc1)N1O[C@@H](c2ccccc2)C=C[C@H]1c1ccccc1,27.5 µM,–,21.9 µM,24 µM,32.7 µM,53.5 µM,31.2 µM,16.1 µM,20.1 µM,–,11.7 µM,–
CSc1c(C#N)c(N)n2c1C(=O)N(c1ccccc1)C2=S,> 100 µM,–,> 100 µM,> 100 µM,> 100 µM,> 100 µM,78.3 µM,> 100 µM,> 100 µM,–,> 100 µM,–
CN(C)CCCN1C(=S)N(CCCN(C)C)c2c3cc(O)ccc3nc3c([N+](=O)[O-])ccc1c23,8.81 µM,–,11 µM,9.73 µM,15 µM,19 µM,15.9 µM,6.07 µM,6.7 µM,–,13.3 µM,–
Cc1c(C(=O)CSc2nc3ccccc3c(=O)n2-c2ccccc2)c(=O)n(-c2ccccc2)n1C,> 100 µM,> 100 µM,> 100 µM,> 100 µM,–,> 100 µM,> 100 µM,> 100 µM,> 100 µM,> 100 µM,–,–
CC12CC(=O)C3C(C(=O)C1)C32C (stereo not given),> 100 µM,–,> 100 µM,> 100 µM,> 100 µM,> 100 µM,> 100 µM,> 100 µM,> 100 µM,–,> 100 µM,–
O=C(/C=C/c1ccsc1)c1ccsc1,44.7 µM,–,42.6 µM,> 100 µM,85.6 µM,45.2 µM,52.8 µM,30.3 µM,69.6 µM,–,35.6 µM,–
O=C1c2cc3c(cc2CC1Br)CCC3 (stereo not given),4.56 µM,–,13.1 µM,38.7 µM,4.04 µM,2.18 µM,3.85 µM,3.03 µM,56.2 µM,–,11.7 µM,–
CC(C(=O)n1nnc2ccccc21)N(c1ccccc1)c1ccccc1 (stereo not given),> 100 µM,> 100 µM,> 100 µM,> 100 µM,> 100 µM,> 100 µM,> 100 µM,> 100 µM,> 100 µM,> 100 µM,–,–

Compound,TGI (MOLT-4 leukemia),TGI (DMS 273 small cell lung),TGI (ACHN renal),TGI (A549 NSCLC),TGI (OVCAR-8 ovarian),TGI (CCRF-CEM leukemia),TGI (COLO 205 colon),TGI (HCT-116 colon),TGI (NCI-H460 lung),TGI (DLD-1 colon),TGI (PC-3 prostate),GI50 (CCRF-CEM leukemia)
CC[C@H]1CN2CCc3cc(OC)c(OC)cc3[C@@H]2C[C@@H]1C[C@H]1NCCc2cc(OC)c(OC)cc21,–,0.18 µM and 0.0463 µM,0.0974 µM and 0.428 µM,–,0.532 µM and 1.09 µM,0.0656 µM,0.0283 µM and 0.0201 µM,0.0805 µM and 0.153 µM,0.0713 µM and 0.03 µM,0.591 µM and 0.408 µM,0.103 µM,0.0215 µM
CCCn1c(CN(Cc2nc3ccccc3n2CCC)Cc2nc3ccccc3n2CCC)nc2ccccc21,40.8 µM,–,> 100 µM,> 64.4 µM,> 100 µM,21.7 µM,13 µM,13.6 µM,18.5 µM,–,18.9 µM,–
C1=CC2=CC=CC3c4nc5ccc6ccccc6c5nc4C(=C1)C23 (stereo not given),> 100 µM,–,> 100 µM,> 100 µM,> 100 µM,> 100 µM,> 100 µM,> 100 µM,> 100 µM,–,> 100 µM,–
O=C(NC(Cc1ccc(I)cc1)C(=O)O)c1ccc(I)cc1 (stereo not given),> 100 µM,> 100 µM,–,> 100 µM,> 100 µM,> 100 µM,> 100 µM,> 100 µM,> 100 µM,> 100 µM,–,–
CCCNC(=O)CCC(C)[C@H]1CCC2C3C(C[C@H](OC(C)=O)[C@@]21C)[C@@]1(C)CCC2(C[C@H]1C[C@H]3OC(C)=O)OOC1(CCC(C)CC1)OO2 (stereo not given in full),> 100 µM,–,4.08 µM,5.26 µM,48.3 µM,2.16 µM,29.9 µM,> 100 µM,71.2 µM,–,> 100 µM,–
CO[C@]12CC(=O)C3(C(C[C@H]4CC5CC=C6C[C@@H](OC(C)=O)CC[C@]6(OC(C)=O)C5C[C@@]43C)C1)C1C[C@H]3[C@@H]4CC=C5C[C@@H](OC(C)=O)CC[C@]5(OC(C)=O)[C@H]4CC[C@]3(C)C12 (stereo not given in full),63.3 µM,–,> 100 µM,> 100 µM,> 100 µM,> 100 µM,12.7 µM,> 100 µM,47.8 µM,–,> 100 µM,–
N#C/C(=C\c1cc(Br)c(O)c(Br)c1)c1cccnc1,> 100 µM,–,> 100 µM,> 100 µM,> 100 µM,> 100 µM,> 100 µM,> 100 µM,> 100 µM,–,69.7 µM,–
CN(C)Cc1cc(C(=O)/C=C/c2ccc(O)cc2)cc(CN(C)C)c1O,> 100 µM,–,53.3 µM,> 100 µM,> 100 µM,88.3 µM,33.9 µM,> 100 µM,> 100 µM,–,> 100 µM,–
O=C1CN2C(c3ccccc3)=NN(c3ccc([N+](=O)[O-])cc3)C2(c2ccccc2)c2cc(Cl)ccc2N1CC1CC1 (stereo not given),> 100 µM,–,> 100 µM,> 100 µM,> 100 µM,> 100 µM,> 100 µM,> 100 µM,> 100 µM,–,> 100 µM,–
CN(C)c1nc(=NCc2ccccc2)ss1,> 6.19 µM,–,> 10 µM,> 10 µM,> 10 µM,4.66 µM,> 10 µM,> 10 µM,> 10 µM,–,> 10 µM,–
Cc1ccccc1C(O)(c1nccn1C)c1nccn1C,> 100 µM,–,> 100 µM,> 100 µM,> 100 µM,> 100 µM,> 100 µM,> 100 µM,> 100 µM,–,> 100 µM,–
CC(=O)OCC1OC(n2cc([N+](=O)[O-])c(=O)[nH]c2=O)C(OC(C)=O)C(OC(C)=O)C1OC(C)=O (stereo not given),> 100 µM,> 100 µM,> 100 µM,> 100 µM,> 100 µM,> 100 µM,> 100 µM,> 100 µM,> 100 µM,> 100 µM,–,–
C/C(CC1C2CCCC1C2)=N\NC(N)=O (stereo not given),> 100 µM,–,> 100 µM,> 100 µM,> 100 µM,> 100 µM,> 100 µM,> 100 µM,> 100 µM,–,> 100 µM,–
Cc1cn(C2OC(C)(CO)C(O)C2O)c(=O)[nH]c1=O (stereo not given),> 100 µM,> 100 µM,> 100 µM,> 100 µM,> 100 µM,> 100 µM,> 100 µM,> 100 µM,> 100 µM,> 100 µM,–,–
N#CCCN(CCC#N)c1ccc(/C=C2\N=C(c3ccccc3)N(c3ccc(Cl)cc3)C2=O)cc1,> 100 µM,–,> 100 µM,> 100 µM,> 100 µM,> 100 µM,> 100 µM,> 100 µM,> 100 µM,–,> 100 µM,–
O=S(=O)(O)c1cc2ccc1/C=C\c1ccc(cc1S(=O)(=O)O)N=Nc1ccc(c(S(=O)(=O)O)c1)/C=C\c1ccc(cc1S(=O)(=O)O)N=N2,> 100 µM,> 100 µM,–,> 100 µM,> 100 µM,> 100 µM,> 100 µM,> 100 µM,> 100 µM,> 100 µM,–,–
CC(C)/C(Cl)=N\OC(=O)Nc1ccc(C#N)cc1,5.41 µM,–,19 µM,39.9 µM,31 µM,6.85 µM,3.24 µM,17.1 µM,33.4 µM,–,30.1 µM,–

# From PubChem BioAssay (NCI)
